Measurements taken from US11566007B2, “Ras inhibitors” (Revolution Medicines, Inc., priority 2019, dated 2023).

Key:
[1] = test system: NCI-H358 cells (K-Ras G12C); experiment: Potency assay: pERK in NCI-H358 cells; type: cell-based, human; settings: Homo sapiens, NCI-H358; H358 KRAS G12C; read-out: pERK EC50
In short: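 4 h cpd, 37 °C; 10-pt 3-fold series, 10 mM DMSO top stock, duplicates. Readout pERK: AlphaLISA SureFire Ultra or In-Cell Western (IR-800CW secondary, DRAQ5 DNA stain). IC50, 4-PL fit vs log conc.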

NCI-H358 (K-Ras G12C) = experiment: CellTiter-Glo cell viability assay, NCI-H358; type: cell-based, human; settings: Homo sapiens, NCI-H358, 120 h, NCI-H358, 5-day treatment; class symbols; read-out: Additional H358 Cell Viability assay data (K-Ras G12C, IC50)
In short: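 Viability of K-Ras mutant lines is measured by ATP luminescence after five days of compound treatment. Percent of DMSO control is calculated and dose-response data are fitted with a four-parameter logistic equation.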

KRAS Q61H = KRAS Q61H (Homo sapiens (Human), UniProt P01116+P62937, Q61H); experiment: Ras-Raf (BRAF RBD) disruption / FRET / MOA assay, KRAS Q61H; type: biochemical; settings: Ras-Raf disruption/FRET/MOA assay; class symbols; read-out: KRAS Q61H FRET data IC50
Sequence of KRAS Q61H (P01116-2 other isoform, or with tags, fused parts or gaps Q61H): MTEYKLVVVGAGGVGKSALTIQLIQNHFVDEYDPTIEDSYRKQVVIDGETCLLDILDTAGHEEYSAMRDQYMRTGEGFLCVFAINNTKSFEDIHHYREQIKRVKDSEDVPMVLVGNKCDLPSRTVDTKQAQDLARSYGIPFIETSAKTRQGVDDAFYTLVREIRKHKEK
Sequence of KRAS Q61H (P62937 whole entry): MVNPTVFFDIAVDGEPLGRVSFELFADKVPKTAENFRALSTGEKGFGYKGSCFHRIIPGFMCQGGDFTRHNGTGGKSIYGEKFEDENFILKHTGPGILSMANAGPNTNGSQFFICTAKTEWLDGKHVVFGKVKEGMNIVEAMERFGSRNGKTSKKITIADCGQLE
In short: (§1)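 Compounds (30 μM top final, 10-point 3-fold dilutions) incubated 3 h at 25° C with nucleotide-loaded Ras, cyclophilin A and BRAF RBD. Detection with 10 nM anti-His Eu-W1024 and 50 nM anti-GST allophycocyanin over another 1.5 h. Lowered TR-FRET ratio relative to DMSO wells gives IC50.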

NRAS Q61K = NRAS Q61K (Homo sapiens (Human), UniProt P01111+P62937, Q61K); experiment: Ras-Raf (BRAF RBD) disruption / FRET / MOA assay, NRAS Q61K; type: biochemical; settings: NRAS Q61K; Ras-Raf disruption/FRET/MOA assay; read-out: IC50* NRAS Q61K FRET data
Sequence of NRAS Q61K (P01111 whole entry Q61K): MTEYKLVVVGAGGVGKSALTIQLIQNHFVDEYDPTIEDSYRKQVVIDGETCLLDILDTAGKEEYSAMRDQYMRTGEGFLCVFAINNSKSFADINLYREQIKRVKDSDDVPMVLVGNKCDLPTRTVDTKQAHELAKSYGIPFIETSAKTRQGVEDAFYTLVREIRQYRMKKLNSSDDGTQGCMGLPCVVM
Sequence of NRAS Q61K (P62937 whole entry): as the sequence (P62937 whole entry) above
In short: as §1

| Structure (SMILES) | EC50 [1] | IC50 (NCI-H358 (K-Ras G12C)) | IC50 (KRAS Q61H) | IC50 (NRAS Q61K) |
| --- | --- | --- | --- | --- |
| CCn1c(-c2cccnc2[C@H](C)OC)c2c3cc(ccc31)N1CCC[C@@H](C[C@H](NC(=O)[C@@H](COC3CN(C(=O)C#CC(C)(C)N(C)C)C3)C(C)C)C(=O)N3CCC[C@H](N3)C(=O)OCC(C)(C)C2)C1 (atropisomer, axis not shown) [Example A715, (2R)-2-(((1-(4-(dimethylamino)-4-methylpent-2-ynoyl)azetidin-3-yl)oxy)methyl)-N-((2^3S,6^3S,4S)-1^1-ethyl-1^2-(2-((S)-1-methoxyethyl)pyridin-3-yl)-10,10-dimethyl-5,7-dioxo-6^1,6^2,6^3,6^4,6^5,6^6-hexahydro-1^1H-8-oxa-1(5,3)-indola-6(1,3)-pyridazina-2(1,3)-piperidinacycloundecaphane-4-yl)-3-methylbutanamide] | < 5000 nM | 10 to 100 nM | > 10000 nM | > 10000 nM |
| C=CC(=O)N1CCN(C(=O)N(C)[C@H](C(=O)N[C@H]2Cc3nc(cs3)-c3ccc4c(c3)c(c(-c3cccnc3[C@H](C)OC)n4CC)CC(C)(C)COC(=O)[C@@H]3CCCN(N3)C2=O)C(C)C)[C@@H]2CC[C@@H]21 (atropisomer, axis not shown) [Example A718] | < 5000 nM | < 10 nM | 10 to 100 nM | 10 to 100 nM |
| C=CC(=O)N1CC[C@]2(CCN(C(=O)N(C)[C@H](C(=O)N[C@H]3Cc4nc(cs4)-c4ccc5c(c4)c(c(-c4cccnc4[C@H](C)OC)n5CC)CC(C)(C)COC(=O)[C@@H]4CCCN(N4)C3=O)C(C)C)C2)C1 (atropisomer, axis not shown) [Example A719] | < 5000 nM | 10 to 100 nM | 10 to 100 nM | 10 to 100 nM |
| C=CC(=O)N1CC(OC[C@H](C(=O)N[C@H]2Cc3cc(F)cc(c3)-c3ccc4c(c3)c(c(-c3cccnc3[C@H](C)OC)n4CC(F)(F)F)CC(C)(C)COC(=O)[C@@H]3CCCN(N3)C2=O)C(C)C)C1 (atropisomer, axis not shown) [Example A725] | < 5000 nM | 10 to 100 nM | 100 to 1000 nM | 1000 to 10000 nM |
| C=CC(=O)N1CC[C@H](N(C)C(=O)N(C)[C@H](C(=O)N[C@H]2Cc3nc(cs3)-c3ccc4c(c3)c(c(-c3cccnc3[C@H](C)OC)n4CC)CC(C)(C)COC(=O)[C@@H]3CCCN(N3)C2=O)C(C)C)C1 (atropisomer, axis not shown) [Example A728] | < 5000 nM | 10 to 100 nM | 100 to 1000 nM | 100 to 1000 nM |
| C=CC(=O)N1CCN(C(=O)N(C)[C@H](C(=O)N[C@H]2Cc3nc(cs3)-c3ccc4c(c3)c(c(-c3cccnc3[C@H](C)OC)n4CC)CC(C)(C)COC(=O)[C@@H]3CCCN(N3)C2=O)C(C)C)[C@H]2CC[C@H]21 (atropisomer, axis not shown) [Example A734] | < 5000 nM | 10 to 100 nM | 10 to 100 nM | 10 to 100 nM |
| C=CC(=O)N1CC2(C1)OCCCN2C(=O)N(C)[C@H](C(=O)N[C@H]1Cc2nc(cs2)-c2ccc3c(c2)c(c(-c2cccnc2[C@H](C)OC)n3CC)CC(C)(C)COC(=O)[C@@H]2CCCN(N2)C1=O)C(C)C (atropisomer, axis not shown) [Example A735, 2-acryloyl-N-((2S)-1-(((6^3S,4S,Z)-1^1-ethyl-1^2-(2-((S)-1-methoxyethyl)pyridin-3-yl)-10,10-dimethyl-5,7-dioxo-6^1,6^2,6^3,6^4,6^5,6^6-hexahydro-1^1H-8-oxa-2(4,2)-thiazola-1(5,3)-indola-6(1,3)-pyridazinacycloundecaphane-4-yl)amino)-3-methyl-1-oxobutan-2-yl)-N-methyl-5-oxa-2,9-diazaspiro[3.5]nonane-9-carboxamide] | < 5000 nM | < 10 nM | 1000 to 10000 nM | 1000 to 10000 nM |
| C=CC(=O)N(C)[C@@H]1C[C@H]1N(C)C(=O)N(C)[C@H](C(=O)N[C@H]1Cc2nc(cs2)-c2ccc3c(c2)c(c(-c2cccnc2[C@H](C)OC)n3CC)CC(C)(C)COC(=O)[C@@H]2CCCN(N2)C1=O)C(C)C (atropisomer, axis not shown) [Example A739] | < 5000 nM | 10 to 100 nM | 10 to 100 nM | 10 to 100 nM |
| C=CC(=O)N1CC[C@H](C(=O)N(C)[C@H](C(=O)N[C@H]2Cc3cccc(c3)-c3ccc4c(c3)c(c(-c3cnccc3[C@H](C)OC)n4CC)CC(C)(C)COC(=O)[C@@H]3CCCN(N3)C2=O)C(C)C)C1 (single isomer, unassigned) [Example A115] | < 5000 nM | 10 to 100 nM | 100 to 1000 nM | 1000 to 10000 nM |
| C=CC(=O)N1CC[C@H](C(=O)N(C)[C@H](C(=O)N[C@H]2Cc3cc(O)cc(c3)-c3ccc4c(c3)c(c(-c3cc(N5CC(OC)C5)ccn3)n4CC)CC(C)(C)COC(=O)[C@@H]3CCCN(N3)C2=O)C(C)C)C1 [Example A104] | < 5000 nM | < 10 nM | 100 to 1000 nM | 1000 to 10000 nM |
| C=CC(=O)N1CC[C@H](C(=O)N(C)[C@H](C(=O)N[C@H]2Cc3cc(O)cc(c3)-c3ccc4c(c3)c(c(-c3cc(C#N)cnc3COC)n4CC)CC(C)(C)COC(=O)[C@@H]3CCCN(N3)C2=O)C(C)C)C1 [Example A105] | < 5000 nM | 10 to 100 nM | 10 to 100 nM | 100 to 1000 nM |
| C=CC(=O)N1CC[C@H](C(=O)N(C)[C@H](C(=O)N[C@H]2Cc3cc(O)cc(c3)-c3ccc4c(c3)c(c(-c3cn(C)cn3)n4CC)CC(C)(C)COC(=O)[C@@H]3CCCN(N3)C2=O)C(C)C)C1 [Example A113] | < 5000 nM | 100 to 1000 nM | 1000 to 10000 nM | > 10000 nM |
| C=CS(=O)(=O)N1CC[C@H](C(=O)N(C)[C@H](C(=O)N[C@H]2Cc3cc(O)cc(c3)-c3ccc4c(c3)c(c(-c3cncnc3)n4CC)CC(C)(C)COC(=O)[C@@H]3CCCN(N3)C2=O)C(C)C)C1 [Example A172] | < 5000 nM | 10 to 100 nM | 100 to 1000 nM | 1000 to 10000 nM |
| CCn1c(-c2cccnc2[C@H](C)OC)c2c3cc(ccc31)-c1cccc(c1)C[C@H](NC(=O)[C@H](C(C)C)N1CC[C@@]3(CCN(C(=O)C#C[C@@H]4COCCN4C4COC4)C3)C1=O)C(=O)N1CCC[C@H](N1)C(=O)OCC(C)(C)C2 [Example A566] | < 5000 nM | < 10 nM | 100 to 1000 nM | 1000 to 10000 nM |
| C=CC(=O)N1CCC2(C1)CN(C(=O)N(C)[C@H](C(=O)N[C@H]1Cc3nc(cs3)-c3ccc4c(c3)c(c(-c3cccnc3[C@H](C)OC)n4CC(F)(F)F)CC(C)(C)COC(=O)[C@@H]3CCCN(N3)C1=O)C(C)C)C2 [Example A603] | < 5000 nM | 10 to 100 nM | 10 to 100 nM | 10 to 100 nM |
| CCn1c(-c2cccnc2[C@H](C)OC)c2c3cc(ccc31)-c1cccc(c1)C[C@H](NC(=O)[C@H](C(C)C)N(C)C(=O)N1CCC13CN(C(=O)C#CC(C)(C)N(C)C)C3)C(=O)N1CCC[C@H](N1)C(=O)OCC(C)(C)C2 [Example A672] | < 5000 nM | 10 to 100 nM | 10 to 100 nM | 100 to 1000 nM |
| C=CC(=O)N(C)[C@H]1CC1N(C)C(=O)N(C)[C@H](C(=O)N[C@H]1Cc2nc(cs2)-c2ccc3c(c2)c(c(-c2cccnc2[C@H](C)OC)n3CC)CC(C)(C)COC(=O)[C@@H]2CCCN(N2)C1=O)C(C)C (some centres unmarked) [Example A738] | < 5000 nM | < 10 nM | 100 to 1000 nM | 100 to 1000 nM |
